Assays:
T24 cell line = assay: PI-positive cell count, bladder cancer cells (IncuCyte); assay type: cell-based, Human; settings: for Number of cells (PI-positive): 24 h post-treatment
Protocol: (§1) The effect of the compounds according to certain embodiments of the present invention as anti-cancer agents was assessed. Human cancer cells of prostate (PC3 cell line), bladder (T24 cell line), or breast (MDA-MB-231 cell line) cancers were thawed and cultured in suitable media at a final concentration of 3×10^5 cells/mL and tested in triplicates. Following 24 hours of incubation, cells were treated with the tested compounds at 2 μg/ml and 4 μg/ml concentrations or controls (cells were grown in starvation medium and treated with Mitomycin C). Mitomycin C is a potent antineoplastic agent that creates DNA cross-linkage resulting in cell arrest and consequently cell death. It is used to treat various types of cancers such as bladder and breast cancers. In in-vitro models, it acts as a proliferation inhibitor as it induces G0-G1 cell growth arrest. The number of cells in each sample was quantified immediately upon treatment (time-point 0) and every 24 hours until full cell confluency was reached. 24 hours post-treatment, PI (1 μg/ml) was added to the treated cells for 1 hour. Using cell-by-cell analysis (IncuCyte™ cell imager), the PI-positive cells were counted and compared to the relative number of cells in the non-treated (NT) wells.

Human adrenal cells = assay: Steroidogenesis: cortisol secretion by Forskolin-stimulated human adrenal cells (ELISA); assay type: cell-based; settings: 24 h, Forskolin 10 μM
Protocol: The effect of the compounds according to certain embodiments of the present invention as inhibitors of steroidogenesis was assessed. Human adrenal cells were thawed and cultured in a suitable medium at a final concentration of 5×10^5 cells per mL (performed in triplicates). Following 24 hours of incubation, cells were treated with 10 μM Forskolin. After 48 hours of incubation, cells were treated with controls (1 μM Prochloraz, and 0.2 μg/mL or 1 μg/mL CBD) and compounds according to embodiments of the present invention for 24 hours. Next, supernatants were collected, and the secretion levels of cortisol were measured by ELISA (R&D systems). Optical density was determined by ‘CLARIOStar-plus’® plate-reader. Cortisol concentration (ng/ml) was calculated using a standard curve.

MDA-MB-231 cell line = assay: PI-positive cell count, breast cancer cells (IncuCyte); assay type: cell-based, Human; settings: for Number of cells (PI-positive): 24 h post-treatment
Protocol: as §1

PC3 cell line = assay: PI-positive cell count, prostate cancer cells (IncuCyte); assay type: cell-based, Human; settings: for Number of cells (PI-positive): 24 h post-treatment
Protocol: as §1

[1] = Breast cancer MDA-MB-231, 2 μg/ml
[2] = Breast cancer MDA-MB-231, 4 μg/ml

C=C(C)[C@@H]1CCC(C)=C[C@H]1c1c(O)cc(CCCCC)cc1O [CBD, cannabidiol, reference compound]
% NT (PI-positive cells relative to non-treated) (T24 cell line; Bladder cancer T24, 2 μg/ml): 156% | Number of cells (PI-positive) (T24 cell line; Bladder cancer T24, 2 μg/ml): 171.47 | % NT (PI-positive cells relative to non-treated) (T24 cell line; Bladder cancer T24, 4 μg/ml): 1794% | Number of cells (PI-positive) (T24 cell line; Bladder cancer T24, 4 μg/ml): 1969.93 | Cortisol (Human adrenal cells; inhibitor 0.2 μg/mL): 101 ng/mL | Cortisol % of Forskolin (Human adrenal cells; inhibitor 0.2 μg/mL): 95% | Cortisol (Human adrenal cells; inhibitor 1 μg/mL): 62 ng/mL | Cortisol % of Forskolin (Human adrenal cells; inhibitor 1 μg/mL): 58% | % NT (PI-positive cells relative to non-treated) (MDA-MB-231 cell line; [1]): 175% | Number of cells (PI-positive) (MDA-MB-231 cell line; [1]): 89.40 | % NT (PI-positive cells relative to non-treated) (MDA-MB-231 cell line; [2]): 1325% | Number of cells (PI-positive) (MDA-MB-231 cell line; [2]): 675.73 | % NT (PI-positive cells relative to non-treated) (PC3 cell line; Prostate cancer PC3, 2 μg/ml): 90% | Number of cells (PI-positive) (PC3 cell line; Prostate cancer PC3, 2 μg/ml): 22.53 | % NT (PI-positive cells relative to non-treated) (PC3 cell line; Prostate cancer PC3, 4 μg/ml): 320% | Number of cells (PI-positive) (PC3 cell line; Prostate cancer PC3, 4 μg/ml): 80.13

CCCCCCc1cc(O)c(C2C=C(C)CCC2C(C)(C)O)c(O)c1 (stereo not drawn) [Formula 1]
Cortisol (Human adrenal cells; inhibitor 0.2 μg/mL): 37 ng/mL | Cortisol % of Forskolin (Human adrenal cells; inhibitor 0.2 μg/mL): 35% | Cortisol (Human adrenal cells; inhibitor 1 μg/mL): 24 ng/mL | Cortisol % of Forskolin (Human adrenal cells; inhibitor 1 μg/mL): 22% | % NT (PI-positive cells relative to non-treated) (PC3 cell line; Prostate cancer PC3, 2 μg/ml): 216% | Number of cells (PI-positive) (PC3 cell line; Prostate cancer PC3, 2 μg/ml): 54.13 | % NT (PI-positive cells relative to non-treated) (PC3 cell line; Prostate cancer PC3, 4 μg/ml): 260% | Number of cells (PI-positive) (PC3 cell line; Prostate cancer PC3, 4 μg/ml): 65.27

CCCCCc1cc(O)c(C2CC(C)CCC2C(C)(C)O)c(O)c1 (stereo not drawn) [Formula 2]
Cortisol (Human adrenal cells; inhibitor 0.2 μg/mL): 100 ng/mL | Cortisol % of Forskolin (Human adrenal cells; inhibitor 0.2 μg/mL): 94% | Cortisol (Human adrenal cells; inhibitor 1 μg/mL): 77 ng/mL | Cortisol % of Forskolin (Human adrenal cells; inhibitor 1 μg/mL): 72% | % NT (PI-positive cells relative to non-treated) (PC3 cell line; Prostate cancer PC3, 2 μg/ml): 307% | Number of cells (PI-positive) (PC3 cell line; Prostate cancer PC3, 2 μg/ml): 76.93 | % NT (PI-positive cells relative to non-treated) (PC3 cell line; Prostate cancer PC3, 4 μg/ml): 363% | Number of cells (PI-positive) (PC3 cell line; Prostate cancer PC3, 4 μg/ml): 90.93

CCCCCCCc1cc(O)c(C2C=C(C)CCC2C(C)(C)O)c(O)c1 (stereo not drawn) [Formula 4]
% NT (PI-positive cells relative to non-treated) (T24 cell line; Bladder cancer T24, 2 μg/ml): 108% | Number of cells (PI-positive) (T24 cell line; Bladder cancer T24, 2 μg/ml): 118.20 | % NT (PI-positive cells relative to non-treated) (T24 cell line; Bladder cancer T24, 4 μg/ml): 703% | Number of cells (PI-positive) (T24 cell line; Bladder cancer T24, 4 μg/ml): 771.60 | Cortisol (Human adrenal cells; inhibitor 0.2 μg/mL): 38 ng/mL | Cortisol % of Forskolin (Human adrenal cells; inhibitor 0.2 μg/mL): 36% | Cortisol (Human adrenal cells; inhibitor 1 μg/mL): 35 ng/mL | Cortisol % of Forskolin (Human adrenal cells; inhibitor 1 μg/mL): 32% | % NT (PI-positive cells relative to non-treated) (MDA-MB-231 cell line; [1]): 120% | Number of cells (PI-positive) (MDA-MB-231 cell line; [1]): 61.07 | % NT (PI-positive cells relative to non-treated) (MDA-MB-231 cell line; [2]): 1417% | Number of cells (PI-positive) (MDA-MB-231 cell line; [2]): 722.47 | % NT (PI-positive cells relative to non-treated) (PC3 cell line; Prostate cancer PC3, 2 μg/ml): 228% | Number of cells (PI-positive) (PC3 cell line; Prostate cancer PC3, 2 μg/ml): 57.27 | % NT (PI-positive cells relative to non-treated) (PC3 cell line; Prostate cancer PC3, 4 μg/ml): 2810% | Number of cells (PI-positive) (PC3 cell line; Prostate cancer PC3, 4 μg/ml): 704.33

CCCCCCC(C)(C)c1cc(O)c(C2C=C(C)CCC2C(C)(C)O)c(O)c1 (stereo not drawn) [Formula 7]
% NT (PI-positive cells relative to non-treated) (T24 cell line; Bladder cancer T24, 2 μg/ml): 429% | Number of cells (PI-positive) (T24 cell line; Bladder cancer T24, 2 μg/ml): 470.67 | % NT (PI-positive cells relative to non-treated) (T24 cell line; Bladder cancer T24, 4 μg/ml): 1156% | Number of cells (PI-positive) (T24 cell line; Bladder cancer T24, 4 μg/ml): 1269.33 | Cortisol (Human adrenal cells; inhibitor 0.2 μg/mL): 39 ng/mL | Cortisol % of Forskolin (Human adrenal cells; inhibitor 0.2 μg/mL): 37% | Cortisol (Human adrenal cells; inhibitor 1 μg/mL): 47 ng/mL | Cortisol % of Forskolin (Human adrenal cells; inhibitor 1 μg/mL): 44% | % NT (PI-positive cells relative to non-treated) (MDA-MB-231 cell line; [1]): 277% | Number of cells (PI-positive) (MDA-MB-231 cell line; [1]): 141.47 | % NT (PI-positive cells relative to non-treated) (MDA-MB-231 cell line; [2]): 2197% | Number of cells (PI-positive) (MDA-MB-231 cell line; [2]): 1120.53 | % NT (PI-positive cells relative to non-treated) (PC3 cell line; Prostate cancer PC3, 2 μg/ml): 326% | Number of cells (PI-positive) (PC3 cell line; Prostate cancer PC3, 2 μg/ml): 81.80 | % NT (PI-positive cells relative to non-treated) (PC3 cell line; Prostate cancer PC3, 4 μg/ml): 4139% | Number of cells (PI-positive) (PC3 cell line; Prostate cancer PC3, 4 μg/ml): 1037.53

CCCCCc1cc(O)c(C2C=C(C)CCC2C(C)(C)O)c(O)c1C(=O)OC (stereo not drawn) [Formula 12]
Cortisol (Human adrenal cells; inhibitor 0.2 μg/mL): 43 ng/mL | Cortisol % of Forskolin (Human adrenal cells; inhibitor 0.2 μg/mL): 41% | Cortisol (Human adrenal cells; inhibitor 1 μg/mL): 45 ng/mL | Cortisol % of Forskolin (Human adrenal cells; inhibitor 1 μg/mL): 42% | % NT (PI-positive cells relative to non-treated) (PC3 cell line; Prostate cancer PC3, 2 μg/ml): 215% | Number of cells (PI-positive) (PC3 cell line; Prostate cancer PC3, 2 μg/ml): 53.93 | % NT (PI-positive cells relative to non-treated) (PC3 cell line; Prostate cancer PC3, 4 μg/ml): 390% | Number of cells (PI-positive) (PC3 cell line; Prostate cancer PC3, 4 μg/ml): 97.80

CCCCCc1cc(O)c(C2C=C(C)CCC2C(C)(C)O)c(O)c1C(=O)NCCCN1CCOCC1 (stereo not drawn) [Formula 14]
Cortisol (Human adrenal cells; inhibitor 0.2 μg/mL): 41 ng/mL | Cortisol % of Forskolin (Human adrenal cells; inhibitor 0.2 μg/mL): 39% | Cortisol (Human adrenal cells; inhibitor 1 μg/mL): 45 ng/mL | Cortisol % of Forskolin (Human adrenal cells; inhibitor 1 μg/mL): 42%

CCCN(CCOc1c(Cl)cc(Cl)cc1Cl)C(=O)n1ccnc1 [Prochloraz, reference compound]
Cortisol (Human adrenal cells; inhibitor 1 μg/mL): 23 ng/mL | Cortisol % of Forskolin (Human adrenal cells; inhibitor 1 μg/mL): 22%
